Experimental data published in patent US7498327B2, “Indolylalkylamine metabolites as 5-hydroxytryptamine-6 ligands” (Wyeth, priority 2004, dated 2009).
pKi: −log10 of the molar value.

Biological target: T1, human cloned 5-HT6 receptors (Homo sapiens, UniProt P50406)
T1 construct: expressed in transfected cells; host or cells: HeLa cells (membrane preparation)
Assay: 5-HT6 binding affinity, [3H]-LSD displacement
Details: membranes of Hela cells expressing human cloned 5-HT6 receptors; [3H]-LSD 3.0 nM; 120 min, room temperature

T1 sequence (P50406 whole entry): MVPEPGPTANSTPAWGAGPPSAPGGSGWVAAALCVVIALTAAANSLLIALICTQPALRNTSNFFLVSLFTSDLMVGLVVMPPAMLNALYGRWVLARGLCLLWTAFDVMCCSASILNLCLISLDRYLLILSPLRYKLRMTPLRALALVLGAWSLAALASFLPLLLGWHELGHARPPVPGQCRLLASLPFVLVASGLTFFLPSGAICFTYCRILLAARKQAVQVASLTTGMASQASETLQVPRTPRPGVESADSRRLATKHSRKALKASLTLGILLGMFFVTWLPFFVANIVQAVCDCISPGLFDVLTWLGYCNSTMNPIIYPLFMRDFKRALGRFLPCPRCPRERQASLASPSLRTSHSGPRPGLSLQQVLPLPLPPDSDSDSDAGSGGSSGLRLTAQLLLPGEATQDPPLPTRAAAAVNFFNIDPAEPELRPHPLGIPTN

pKi: 6.61
Compound: O=C(O)Cc1cn(S(=O)(=O)c2c(Cl)nc3sccn23)c2ccccc12 [Example 2, {1-[(6-Chloroimidazo[2,1-b][1,3]thiazol-5-yl)sulfonyl]-1H-indol-3-yl}acetic acid]
